From ChEMBL document CHEMBL4052760, “Synthesis, antioxidant and antiproliferative activities of 1,3,4-thiadiazoles derived from phenolic acids” (Bioorg Med Chem Lett, 2017)
Calls of active or inactive are those of the source. The calls are words filed in the database; no cut-off is given here.

Columns and labels:
[1] = tested on: HL-60; experiment: Downregulation of VEGFA in human HL60 cells assessed as decrease in mRNA expression levels at 6 uM after 24 hrs by RT-PCR analysis; assay type: functional, cell-based
[2] = tested on: HL-60; experiment: Cytotoxicity against human HL60 cells after 72 hrs by MTT assay; assay type: functional, cell-based; conditions: HL-60, 72 h
[3] = tested on: HL-60; experiment: Induction of apoptosis in human HL60 cells assessed as nuclear fragmentation at 2 times IC50 measured after 24 hrs by acridine orange/ethidium bromide staining-based fluorescence microscopic method; assay type: functional, cell-based
[4] = tested on: HL-60; experiment: Induction of apoptosis in human HL60 cells assessed as chromatin condensation at 2 times IC50 measured after 24 hrs by acridine orange/ethidium bromide staining-based fluorescence microscopic method; assay type: functional, cell-based
[5] = tested on: HL-60; experiment: Induction of apoptosis in human HL60 cells assessed as secondary necrosis at 2 times IC50 measured after 24 hrs by acridine orange/ethidium bromide staining-based fluorescence microscopic method; assay type: functional, cell-based
[6] = tested on: HL-60; experiment: Downregulation of VEGFA in human HL60 cells assessed as decrease in mRNA expression levels at 6.5 uM after 24 hrs by RT-PCR analysis; assay type: functional, cell-based
[7] = tested on: HL-60; experiment: Downregulation of MMP2 in human HL60 cells assessed as decrease in mRNA expression levels at 6 uM after 24 hrs by RT-PCR analysis; assay type: functional, cell-based
[8] = tested on: HL-60; experiment: Downregulation of MMP9 in human HL60 cells assessed as decrease in mRNA expression levels at 6.5 uM after 24 hrs by RT-PCR analysis; assay type: functional, cell-based
[9] = tested on: HL-60; experiment: Downregulation of MMP9 in human HL60 cells assessed as decrease in mRNA expression levels at 6 uM after 24 hrs by RT-PCR analysis; assay type: functional, cell-based
[10] = tested on: HeLa; experiment: Cytotoxicity against human HeLa cells after 72 hrs by MTT assay; assay type: functional, cell-based
[11] = Antioxidant activity assessed as DPPH radical scavenging activity after 30 mins in absence of light; assay type: functional
[12] = tested on: A549; experiment: Cytotoxicity against human A549 cells after 72 hrs by MTT assay; assay type: functional, cell-based; conditions: A549, 72 h
[13] = tested on: HL-60; experiment: Cytoprotective activity against H2O2-induced oxidative stress in human HL60 cells assessed as decrease in level of reactive oxygen species pretreated for 24 hrs at 6.5 uM followed by H2O2-stimulation for 30 mins by DCFH-DA staining-based FACS analysis; assay type: functional, cell-based
[14] = tested on: MRC5; experiment: Cytotoxicity against human MRC5 cells after 72 hrs by MTT assay; assay type: cell-based; conditions: MRC5, 72 h
[15] = tested on: HL-60; experiment: Downregulation of MMP2 in human HL60 cells assessed as decrease in mRNA expression levels at 6.5 uM after 24 hrs by RT-PCR analysis; assay type: functional, cell-based
[16] = tested on: HL-60; experiment: Induction of cell death in human HL60 cells assessed as decrease in percentage of cells in subG1 phase at 2 times IC50 pretreated for 72 hrs followed by caspase-9 inhibitor Z-LEHD-FMK addition measured after 24 hrs by propidium iodide-staining based FACS analysis; assay type: functional
[17] = tested on: EA.hy 926; experiment: Antiangiogenic activity against human EAhy926 cells assessed as inhibition of capillary-like tube formation at 30 uM measured after 20 hrs by inverted phase contrast microscopic analysis; assay type: functional, cell-based
[18] = tested on: HL-60; experiment: Induction of cell death in human HL60 cells assessed as decrease in percentage of cells in subG1 phase at 2 times IC50 pretreated for 72 hrs followed by caspase-8 inhibitor Z-IETD-FMK addition measured after 24 hrs by propidium iodide-staining based FACS analysis; assay type: functional
[19] = tested on: HL-60; experiment: Induction of cell death in human HL60 cells assessed as decrease in percentage of cells in subG1 phase at 2 times IC50 pretreated for 72 hrs followed by caspase-3 inhibitor Z-DEVD-FMK addition measured after 24 hrs by propidium iodide-staining based FACS analysis; assay type: functional
[20] = tested on: HL-60; experiment: Cell cycle arrest in human HL60 cells assessed as accumulation at subG1 phase at 2 times IC50 after 24 hrs by FACS analysis; assay type: functional, cell-based
[21] = tested on: HL-60; experiment: Cell cycle arrest in human HL60 cells assessed as accumulation at subG1 phase at IC50 after 24 hrs by FACS analysis; assay type: functional, cell-based
[22] = tested on: HL-60; experiment: Cytoprotective activity against H2O2-induced oxidative stress in human HL60 cells assessed as decrease in level of reactive oxygen species pretreated for 24 hrs at 6 uM followed by H2O2-stimulation for 30 mins by DCFH-DA staining-based FACS analysis; assay type: functional, cell-based
[23] = tested on: EA.hy 926; experiment: Antiangiogenic activity against human EAhy926 cells assessed as inhibition of capillary-like tube formation at 50 uM measured after 20 hrs by inverted phase contrast microscopic analysis; assay type: functional, cell-based
[24] = tested on: HL-60; experiment: Cytoprotective activity against H2O2-induced oxidative stress in human HL60 cells assessed as decrease in level of reactive oxygen species pretreated for 24 hrs at 6.25 uM followed by H2O2-stimulation for 30 mins by DCFH-DA staining-based FACS analysis; assay type: functional, cell-based

Row | SMILES | IC50 [2] | IC50 [10] | IC50 [11] | IC50 [12] | IC50 [14] | further results
1 | O=C(Nc1nnc(-c2ccc(O)c(O)c2)s1)C12CC3CC(CC(C3)C1)C2 | 7.4 µM | 16.1 µM | 17.9 µM | 13 µM | 20.1 µM | Activity [1]: Active; Activity [3]: Active; Activity [4]: Active; Activity [5]: Active; Activity [6]: Active; Activity [7]: Active; Activity [8]: inactive; Activity [9]: inactive; Activity [13]: Active; Activity [15]: Active; Activity [16]: inactive; Activity [17]: Active; Activity [18]: Active; Activity [19]: Active
2 | O=C(Cc1ccccc1)Nc1nnc(-c2cccc(O)c2O)s1 | 13.9 µM | 120 µM | 20.9 µM | 11.8 µM | 45.3 µM | –
3 | O=C(Nc1nnc(-c2cccc(O)c2O)s1)C12CC3CC(CC(C3)C1)C2 | 7.3 µM | 21.4 µM | 14.2 µM | 12.8 µM | 27.7 µM | Activity [1]: Active; Activity [3]: Active; Activity [4]: Active; Activity [5]: Active; Activity [20]: Active; Activity [6]: Active; Activity [21]: Active; Activity [7]: Active; Activity [8]: inactive; Activity [9]: inactive; Activity [22]: Active; Activity [15]: Active; Activity [16]: inactive; Activity [17]: Active; Activity [18]: Active; Activity [19]: Active
4 | Cc1ccc(C(=O)Nc2nnc(-c3cccc(O)c3O)s2)cc1 | 10.6 µM | 13.4 µM | 27.1 µM | 11.3 µM | 33.2 µM | Activity [1]: Active; Activity [3]: Active; Activity [4]: Active; Activity [5]: Active; Activity [6]: Active; Activity [7]: Active; Activity [8]: inactive; Activity [9]: inactive; Activity [23]: Active; Activity [15]: Active; Activity [16]: inactive; Activity [18]: Active; Activity [19]: Active
5 | O=C(Nc1nnc(-c2ccc(O)c(O)c2)s1)C1CCCCC1 | 8.8 µM | 34.5 µM | 37.3 µM | 16.3 µM | 24 µM | –
6 | O=C(COc1ccccc1)Nc1nnc(-c2cccc(O)c2O)s1 | 11.2 µM | 117 µM | 16.6 µM | 10.5 µM | 33.9 µM | Activity [24]: Active
7 | Cc1ccc(C(=O)Nc2nnc(-c3ccc(O)c(O)c3)s2)cc1 | 10.5 µM | 67.1 µM | 34 µM | 11.8 µM | 27.1 µM | –
8 | O=C1O[C@H]([C@@H](O)CO)C(O)=C1O [ASCORBIC ACID] | – | – | 38 µM | – | – | –
9 | CC(Cc1ccc(O)c(O)c1)C(C)Cc1ccc(O)c(O)c1 (stereo not given) [NORDIHYDROGUAIARETIC ACID] | – | – | 20.8 µM | – | – | –
10 | O=C(Nc1nnc(-c2cccc(O)c2O)s1)c1ccccc1 | 20.7 µM | 21.8 µM | 22.3 µM | 12.3 µM | 23.2 µM | –
11 | O=C(Nc1nnc(-c2ccc(O)c(O)c2)s1)c1ccccc1 | 17.6 µM | 23.3 µM | 23.4 µM | 13 µM | 27.4 µM | –
12 | O=C(Nc1nnc(-c2cccc(O)c2O)s1)C1CCCCC1 | 7.9 µM | 91.6 µM | 19.9 µM | 11 µM | 70.3 µM | Activity [24]: Active
13 | O=C(COc1ccccc1)Nc1nnc(-c2ccc(O)c(O)c2)s1 | 17.4 µM | 51.3 µM | 36.1 µM | 21.2 µM | 30.9 µM | –
14 | CC(=O)Nc1nnc(-c2ccc(O)c(O)c2)s1 | 42.5 µM | 125 µM | 23.4 µM | 133 µM | 58.6 µM | –
15 | O=C(Nc1nnc(-c2cccc(O)c2O)s1)c1ccc(Cl)cc1 | 9.6 µM | 13 µM | 30.2 µM | 9.5 µM | 18.7 µM | Activity [1]: Active; Activity [3]: Active; Activity [4]: Active; Activity [5]: Active; Activity [6]: Active; Activity [7]: Active; Activity [8]: inactive; Activity [9]: inactive; Activity [23]: Active; Activity [15]: Active; Activity [16]: inactive; Activity [18]: Active; Activity [19]: Active
16 | CC(=O)Nc1nnc(-c2cccc(O)c2O)s1 | 49 µM | 177 µM | 111 µM | 200 µM | 156 µM | –
17 | O=C(Cc1ccccc1)Nc1nnc(-c2ccc(O)c(O)c2)s1 | 12 µM | 88.6 µM | 21.3 µM | 15.4 µM | 30.7 µM | –
18 | O=C(Nc1nnc(-c2ccc(O)c(O)c2)s1)c1ccc(Cl)cc1 | 14.7 µM | 47.3 µM | 53 µM | 14.6 µM | 30.6 µM | –
